# Results taken from article PMC10164568 (2023).
# How the values were obtained:
# [1] = system: 6H3M0 (DNA, hairpin) TTTTTTTTTTTTTTTTTTTTTTTTTAAAAAAAAAAAAAAAAAAAAAAAAAAAAAAA; assay: ThT fluorescence enhancement; conditions: 10 mM Tris-HCl pH 7.4, room temperature; 1 μM DNA, 1 μM ThT
# [2] = system: H-BB (DNA, hairpin) ACATAATTTAATATTTATGTTAACATAAATATTAAATTATGT; assay: UV-vis absorption shift; conditions: 10 mM Tris-HCl pH 7.4; 2.5 μM ThT in UV-vis
# [3] = system: 3H3Md-TET (DNA, aptamer) CGGTGGTGCGGTGGTGAAACACCAAAACACCAAAA; assay: ThT displacement fluorescence; conditions: 10 mM Tris-HCl pH 7.4; 12.5 μM compound; ThT displaced
SMILES,binding [1],binding [2],binding [3]
Cc1ccc2c(c1)sc(-c1ccc(N(C)C)cc1)[n+]2C,weak,weak,–
CN(C)[C@@H]1C(=O)C(C(N)=O)=C(O)[C@@]2(O)C(=O)C3=C(O)c4c(O)cccc4[C@@](C)(O)[C@H]3[C@H](O)[C@@H]12,–,–,weak
C[C@H]1c2cccc(O)c2C(=O)C2=C(O)[C@]3(O)C(=O)C(C(N)=O)=C(O)[C@@H](N(C)C)[C@@H]3[C@@H](O)[C@@H]21,–,–,weak
